Measured values from patent publication US20090311237A1, “Combination therapy using a soluble hyaluronidase and a bisphosphonate” (priority 2008, published 2009).
Like-named read-outs stand apart in the source and are kept apart here.

Assay: Pharmacokinetics of ZA in pig serum after IV or SC infusion with or without rHuPH20 (LC-MS-MS, non-compartmental analysis)
Format: in vivo
Details: female, Yorkshire, pig, serum, […]
Protocol: A pharmacokinetic study of zoledronic acid (ZA) co-administered with rHuPH20 in female Yorkshire swines was conducted. The primary objective of the study was to determine the bioavailability of zoledronic acid dosed via subcutaneous (SC) co-administration with human recombinant hyaluronidase PH20 (rHuPH20) and to compare the overall exposure to an equivalent IV dose.
Animals in Study Group 1 were dosed with 0.15 mg/kg ZA given via a 20-minute IV infusion. Animals in Study Groups 2 and 3 were dosed subcutaneously (SC) with 0.15 mg/kg ZA without and with rHuPH20, respectively, in different SC delivery volumes.
Following ZA dose administration, serial blood samples were collected via vascular access ports (VAPs) for serum preparation and determination of ZA concentrations. Blood collection times were at 1, 3, 5, 10, 15, 20, 30, 45, and 60 minutes, and at 1.5, 2, 3, 4, 6, 8, 10, 24, 48, and 72 hours post dose. Urine samples were also collected to compare excretion characteristics between IV and SC routes of administration. Collection times for urine were at 15 minutes before dosing (−15 min.), continuously from dose initiation to 2 hours post dose, and at 4, 6, 8, and 24 hours post dose thereafter.
Serum concentration of ZA was determined using a qualified LC-MS-MS assay after derivatization with diazomethane (Zhu, L S et al. (2006) Rapid Commun. Mass Spectrom. 20: 3421-3426; “Qualification Data of An LC-MS/MS Method for the Determination of Zoledronate in Porcine Serum”, MDS Pharma Services Study No. AA43671-01, Report Date 14 Sep. 2007). The assay range was from 2.0 to 400 ng/mL with a lower limit of quantitation (LLOQ) at 2.0 ng/mL. Urine concentration of ZA was determined by a similar well qualified LC-MS-MS method (“Qualification Data of An LC-MS/MS Method for the Determination of Zoledronate in Porcine Urine”, MDS Pharma Services Study No. AA43671-02, Report Date 14 Sep. 2007) with an assay LLOQ at 10 ng/mL.
Pharmacokinetic (PK) analyses of ZA serum concentration versus time data were conducted using WinNonlin v5.1 (Pharsight, Mountain View, Calif.). Non-compartmental analysis was used for derivation of primary and secondary pharmacokinetic (PK) parameters. AUC, Cmax, and Tmax were compared between dose routes, between co-administration with rHuPH20, and with dose of rHuPH20.

[1] = intravenous, animal ID 61, Study Group 1, IV 20 min infusion, ZA […], rHuPH20 0 U/mL, read-out: Zoledronic Acid Serum Concentration
[2] = intravenous, animal ID 67, Study Group 1, IV 20 min infusion, ZA […], rHuPH20 0 U/mL, read-out: Zoledronic Acid Serum Concentration

O=P(O)(O)C(O)(Cn1ccnc1)P(=O)(O)O [ZA, 1-hydroxy-2-(1H-imidazol-1-yl)ethylidene-1,1-bisphosphonic acid]
concentration at 2 h [1]: 18.8 ng/mL | concentration at 3 h [1]: 6.1 ng/mL | concentration at 4 h [1]: 3.3 ng/mL | concentration at 0.05 h (intravenous, animal ID 67, Study Group 1, IV 20 min infusion, ZA […], rHuPH20 0 U/mL, time 0.05 h, read-out: Zoledronic Acid Serum Concentration): 288 ng/mL | concentration at 0.333 h (intravenous, animal ID 67, Study Group 1, IV 20 min infusion, ZA […], rHuPH20 0 U/mL, time 0.333 h, read-out: Zoledronic Acid Serum Concentration): 556 ng/mL | concentration at 0.5 h (intravenous, animal ID 67, Study Group 1, IV 20 min infusion, ZA […], rHuPH20 0 U/mL, time 0.5 h, read-out: Zoledronic Acid Serum Concentration): 246 ng/mL | concentration at 1 h (intravenous, animal ID 67, Study Group 1, IV 20 min infusion, ZA […], rHuPH20 0 U/mL, time 1 h, read-out: Zoledronic Acid Serum Concentration): 77.8 ng/mL | concentration at 2 h [2]: 16.6 ng/mL | concentration at 3 h [2]: 6.67 ng/mL | concentration at 4 h [2]: 3.35 ng/mL | clearance (iv, absolute clearance by non-compartmental analysis of the IV dose (from Table 13), used for Study Groups 2 and 3, read-out: Serum CL (converted)): 7.34 mL/min/kg | clearance (iv, ZA […] 20-min IV infusion, individual pigs 57, 61, 67, read-out: CL (converted)): 6.76 mL/min/kg | Tmax (iv, ZA […] 20-min IV infusion, individual pigs 57, 61, 67, read-out: Tmax): 15 min | half-life (iv, ZA […] 20-min IV infusion, individual pigs 57, 61, 67, read-out: T½ λz (converted)): 37.8 min | Vd (iv, ZA […] 20-min IV infusion, individual pigs 57, 61, 67, read-out: Vss): 0.104 L/kg | Vd (iv, ZA […] 20-min IV infusion, individual pigs 57, 61, 67, read-out: Vz): 0.371 L/kg | clearance (iv, ZA […] 20-min IV infusion, n=3, read-out: CL, mean (converted)): 7.34 mL/min/kg | clearance (iv, ZA […] 20-min IV infusion, n=3, read-out: CL, median (converted)): 7.36 mL/min/kg | Tmax (iv, ZA […] 20-min IV infusion, n=3, read-out: Tmax, mean): 15 min | Tmax (iv, ZA […] 20-min IV infusion, n=3, read-out: Tmax, median): 15 min | half-life (iv, ZA […] 20-min IV infusion, n=3, read-out: T½ λz, mean (converted)): 43.2 ± 4.8 min | half-life (iv, ZA […] 20-min IV infusion, n=3, read-out: T½ λz, median (converted)): 44.4 min | Vd (iv, ZA […] 20-min IV infusion, n=3, read-out: Vss, mean): 0.123 L/kg | Vd (iv, ZA […] 20-min IV infusion, n=3, read-out: Vss, median): 0.131 L/kg | Vd (iv, ZA […] 20-min IV infusion, n=3, read-out: Vz, mean): 0.458 ± 0.0759 L/kg | Vd (iv, ZA […] 20-min IV infusion, n=3, read-out: Vz, median): 0.498 L/kg | CL/F (sc, pig 59, SC ZA […], 100 mL over 16 min, no rHuPH20, read-out: CL/F (converted)): 7.97 mL/min/kg | Tmax (sc, pig 59, SC ZA […], 100 mL over 16 min, no rHuPH20, read-out: Tmax): 20 min | half-life (sc, pig 59, SC ZA […], 100 mL over 16 min, no rHuPH20, read-out: T½ λz (converted)): 66 min | Vd/F (sc, pig 59, SC ZA […], 100 mL over 16 min, no rHuPH20, read-out: Vss/F): 0.617 L/kg | Vd/F (sc, pig 59, SC ZA […], 100 mL over 16 min, no rHuPH20, read-out: Vz/F): 0.76 L/kg | CL/F (sc, pig 60, SC ZA […], 100 mL over 16 min, no rHuPH20, read-out: CL/F (converted)): 6.97 mL/min/kg | bioavailability (sc, pig 60, SC ZA […], 100 mL over 16 min, no rHuPH20, read-out: SC Bioavailability (0-1 h)): 55.5% | bioavailability (sc, pig 60, SC ZA […], 100 mL over 16 min, no rHuPH20, read-out: SC Bioavailability (0-8 h)): 105% | Tmax (sc, pig 60, SC ZA […], 100 mL over 16 min, no rHuPH20, read-out: Tmax): 20 min | half-life (sc, pig 60, SC ZA […], 100 mL over 16 min, no rHuPH20, read-out: T½ λz (converted)): 52.2 min | Vd/F (sc, pig 60, SC ZA […], 100 mL over 16 min, no rHuPH20, read-out: Vss/F): 0.526 L/kg | Vd/F (sc, pig 60, SC ZA […], 100 mL over 16 min, no rHuPH20, read-out: Vz/F): 0.524 L/kg | CL/F (sc, pig 62, SC ZA […], 50 mL over 8 min, no rHuPH20, read-out: CL/F (converted)): 10.2 mL/min/kg | bioavailability (sc, pig 62, SC ZA […], 50 mL over 8 min, no rHuPH20, read-out: SC Bioavailability (0-1 h)): 54% | bioavailability (sc, pig 62, SC ZA […], 50 mL over 8 min, no rHuPH20, read-out: SC Bioavailability (0-8 h)): 71.9% | Tmax (sc, pig 62, SC ZA […], 50 mL over 8 min, no rHuPH20, read-out: Tmax): 10 min | half-life (sc, pig 62, SC ZA […], 50 mL over 8 min, no rHuPH20, read-out: T½ λz (converted)): 58.2 min | Vd/F (sc, pig 62, SC ZA […], 50 mL over 8 min, no rHuPH20, read-out: Vss/F): 0.634 L/kg | Vd/F (sc, pig 62, SC ZA […], 50 mL over 8 min, no rHuPH20, read-out: Vz/F): 0.852 L/kg | CL/F (sc, pig 69, SC ZA […], 25 mL over 4 min, no rHuPH20, read-out: CL/F (converted)): 9.28 mL/min/kg | bioavailability (sc, pig 69, SC ZA […], 25 mL over 4 min, no rHuPH20, read-out: SC Bioavailability (0-1 h)): 56.9% | bioavailability (sc, pig 69, SC ZA […], 25 mL over 4 min, no rHuPH20, read-out: SC Bioavailability (0-8 h)): 78.8% | Tmax (sc, pig 69, SC ZA […], 25 mL over 4 min, no rHuPH20, read-out: Tmax): 10 min | half-life (sc, pig 69, SC ZA […], 25 mL over 4 min, no rHuPH20, read-out: T½ λz (converted)): 60.6 min | Vd/F (sc, pig 69, SC ZA […], 25 mL over 4 min, no rHuPH20, read-out: Vss/F): 0.652 L/kg | Vd/F (sc, pig 69, SC ZA […], 25 mL over 4 min, no rHuPH20, read-out: Vz/F): 0.811 L/kg | CL/F (sc, pig 70, SC ZA […], 10 mL over 1.6 min, no rHuPH20, read-out: CL/F (converted)): 7.69 mL/min/kg | bioavailability (sc, pig 70, SC ZA […], 10 mL over 1.6 min, no rHuPH20, read-out: SC Bioavailability (0-1 h)): 66.5% | bioavailability (sc, pig 70, SC ZA […], 10 mL over 1.6 min, no rHuPH20, read-out: SC Bioavailability (0-8 h)): 95.1% | Tmax (sc, pig 70, SC ZA […], 10 mL over 1.6 min, no rHuPH20, read-out: Tmax): 10 min | half-life (sc, pig 70, SC ZA […], 10 mL over 1.6 min, no rHuPH20, read-out: T½ λz (converted)): 85.2 min | Vd/F (sc, pig 70, SC ZA […], 10 mL over 1.6 min, no rHuPH20, read-out: Vss/F): 0.615 L/kg | Vd/F (sc, pig 70, SC ZA […], 10 mL over 1.6 min, no rHuPH20, read-out: Vz/F): 0.947 L/kg | CL/F (sc, SC ZA […], no rHuPH20 (Study Group 2), n=4, read-out: CL/F, mean (converted)): 8.52 mL/min/kg | CL/F (sc, SC ZA […], no rHuPH20 (Study Group 2), n=4, read-out: CL/F, median (converted)): 8.48 mL/min/kg | bioavailability (sc, SC ZA […], no rHuPH20 (Study Group 2), n=4, read-out: SC Bioavailability (0-1 h), mean): 58.2% | bioavailability (sc, SC ZA […], no rHuPH20 (Study Group 2), n=4, read-out: SC Bioavailability (0-1 h), median): 56.2%
